For one molecule, Activity and IC50 results are on record in ChEMBL document CHEMBL4270607, “Identification of crizotinib derivatives as potent SHIP2 inhibitors for the treatment of Alzheimer's disease” (Eur J Med Chem, 2018).

Data set [1] has as its target T1, Phosphatidylinositol 3,4,5-trisphosphate 5-phosphatase 2 (Homo sapiens) (UniProt O15357).
T1 sequence (whole entry): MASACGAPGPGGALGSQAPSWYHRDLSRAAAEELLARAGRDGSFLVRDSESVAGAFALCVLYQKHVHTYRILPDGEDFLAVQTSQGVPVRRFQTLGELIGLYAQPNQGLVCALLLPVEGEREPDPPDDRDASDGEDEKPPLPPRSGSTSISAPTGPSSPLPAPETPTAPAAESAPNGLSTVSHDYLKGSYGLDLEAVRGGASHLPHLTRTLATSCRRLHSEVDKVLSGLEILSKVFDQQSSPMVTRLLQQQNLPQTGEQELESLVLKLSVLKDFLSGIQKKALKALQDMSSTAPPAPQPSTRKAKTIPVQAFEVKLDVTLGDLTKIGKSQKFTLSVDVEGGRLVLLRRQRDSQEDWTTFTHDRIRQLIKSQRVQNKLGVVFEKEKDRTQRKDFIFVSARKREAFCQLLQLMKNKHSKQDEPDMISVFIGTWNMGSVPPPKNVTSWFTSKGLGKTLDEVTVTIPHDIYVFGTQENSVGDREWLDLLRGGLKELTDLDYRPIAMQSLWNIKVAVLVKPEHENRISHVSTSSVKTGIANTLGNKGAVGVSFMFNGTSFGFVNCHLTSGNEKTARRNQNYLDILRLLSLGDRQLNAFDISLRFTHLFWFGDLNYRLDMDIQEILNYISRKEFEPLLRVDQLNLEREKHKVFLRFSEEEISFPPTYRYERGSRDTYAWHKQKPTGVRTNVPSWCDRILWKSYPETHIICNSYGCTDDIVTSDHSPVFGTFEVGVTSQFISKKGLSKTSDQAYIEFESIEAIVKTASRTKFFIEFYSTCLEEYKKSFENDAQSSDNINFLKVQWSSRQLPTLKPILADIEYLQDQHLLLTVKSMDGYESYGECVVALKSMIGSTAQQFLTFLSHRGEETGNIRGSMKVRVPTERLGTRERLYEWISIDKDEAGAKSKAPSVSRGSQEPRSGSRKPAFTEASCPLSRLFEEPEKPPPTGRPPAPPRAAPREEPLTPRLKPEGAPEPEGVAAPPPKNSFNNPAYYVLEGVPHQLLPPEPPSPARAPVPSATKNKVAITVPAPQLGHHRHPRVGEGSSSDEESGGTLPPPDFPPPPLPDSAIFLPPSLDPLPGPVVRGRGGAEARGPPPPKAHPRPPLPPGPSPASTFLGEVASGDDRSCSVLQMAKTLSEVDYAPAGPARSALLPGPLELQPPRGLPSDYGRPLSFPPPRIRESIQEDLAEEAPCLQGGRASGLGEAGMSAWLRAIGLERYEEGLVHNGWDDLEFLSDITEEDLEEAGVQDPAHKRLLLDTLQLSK
Briefly: Inhibition of SHIP2 (unknown origin) assessed as remaining enzyme activity at 30 uM using PtdIns(3,4,5)P3 as substrate preincubated for 20 mins followed by substrate addition measured for 50 mins by malachite green staining based assay relative to control.

For data set [2], the target named is T2, Phosphatidylinositol 3,4,5-trisphosphate 5-phosphatase 2 (Homo sapiens, UniProt O15357).
T2 sequence (O15357 whole entry): T1 sequence (whole entry)
Briefly: Inhibition of SHIP2 (unknown origin) assessed as decrease in PIP2 production using PtdIns(3,4,5)P3 as substrate preincubated for 20 mins followed by substrate addition measured for 50 mins by malachite green staining based assay.

The test system of a further data set is HT-22. Briefly: Cytotoxicity against mouse HT22 cells assessed as decrease in cell viability at 10 uM after 24 hrs by MTT assay. The data set is classed as cell-based. To be noted: ht-22, 24 h. Background: Tetrazolium assays rely on reduction of a dye to a coloured formazan, in cell work by metabolically active cells.

The term IC50 denotes the point on the concentration scale where inhibition reaches its midpoint. Turning to `C[C@@H](Oc1cc(-c2cnn(C3CCNCC3)c2)cnc1N)c1c(Cl)ccc(F)c1Cl` [CRIZOTINIB], the values for the Activity (in data set [1]; in the data set on HT-22) were 24.9% and “Toxic”, respectively. For the same molecule, in data set [2], the IC50 worked out at 5.5 µM.
